Experiments:
[1] = tested on: Sprague Dawley rats, 6-OHDA lesion; assay: Striatal dopamine content, HPLC-EC (study 2); type: in vivo, rat; conditions: more severe (40%) lesion, vs vehicle
Description: Rats were treated with 2LS98Lac or saline (vehicle) as outlined in the Schemes in Figures 9A,B via intraperitoneal (i.p.) injection (15 mg/kg). All animals were made hemi-parkinsonian with unilateral, striatal 6-hydroxydopamine (Sigma Aldrich, St. Louis, MO) injections. After surgery, behavioral assessments were done at 2- and 4-weeks post-surgery. 24 h after the last test animals were either euthanized and whole brains were harvested for future biochemical analysis or perfused and brains collected for immunohistochemistry and stereological assessment of tyrosine hydroxylase-positive (TH+) cells remaining in the SNc. In study 1: n = 16 each group were included, and all underwent the behavioral analysis: n = 16, and for the stereology in the SNc, n = 8 each group was used. In study 2: n = 23 each group were included. […] In the 2LS98Lac group, one video at 4 weeks was lost, reducing n = 22 in this specific analysis, and for the stereology, 2 brains were damaged during processing and could not be included in the stereology of the SNc, therefore […]. For biochemical subanalyses, n = 8 each group. For the microglial morphology subanalysis n = 7 each group.
FIGURE 9 | Evaluation of neuroprotection of the PACAP glycopeptide 2LS98Lac in rat Parkinson’s disease models. (A) Scheme for study 1, using a mild PD lesion. (B) Scheme for study 2, using a moderate PD lesion. […]

[2] = tested on: Sprague Dawley rats, 6-OHDA lesion; assay: Unbiased stereology of TH-positive neurons in SNc (study 1); type: in vivo, rat; conditions: mild lesion (25%), 15 mg/kg i.p. 6 h prior to and 24 h post-lesion
Description: Rats were treated with 2LS98Lac or saline (vehicle) as outlined in the Schemes in Figures 9A,B via intraperitoneal (i.p.) injection (15 mg/kg). All animals were made hemi-parkinsonian with unilateral, striatal 6-hydroxydopamine (Sigma Aldrich, St. Louis, MO) injections. After surgery, behavioral assessments were done at 2- and 4-weeks post-surgery. 24 h after the last test animals were either euthanized and whole brains were harvested for future biochemical analysis or perfused and brains collected for immunohistochemistry and stereological assessment of tyrosine hydroxylase-positive (TH+) cells remaining in the SNc. In study 1: n = 16 each group were included, and all underwent the behavioral analysis: n = 16, and for the stereology in the SNc, n = 8 each group was used. In study 2: n = 23 each group were included. […]
Stereological probes were applied using a Zeiss Imager M2 microscope (Carl Zeiss, Jena, Germany) equipped with StereoInvestigator software (MBF Bioscience, VT, United States) according to previously published methods ([Corenblum et al., 2015]; [Anandhan et al., 2021]). Using the optical fractionator probe, cells were counted under the ×63 oil immersion objective by a blinded observer. TH+ cells were counted in sections 480 μm apart using a grid size of 170 × 100 μm and counting frame size of 75 × 75 μm. […]

[2H]C([2H])([2H])C([2H])(C([2H])([2H])[2H])[C@]([2H])(NC(=O)[C@H](C)NC(=O)[C@H](C)NC(=O)[C@H](CC(C)C)NC(=O)[C@H](Cc1ccc(O)cc1)NC(=O)[C@H](CCCCN)NC(=O)[C@H](CCCCN)NC(=O)[C@@]([2H])(NC(=O)[C@H](C)NC(=O)[C@H](CC(C)C)NC(=O)[C@H](CCC(N)=O)NC(=O)[C@H](CCCCN)NC(=O)[C@H](CCCNC(=N)N)NC(=O)[C@H](Cc1ccc(O)cc1)NC(=O)[C@H](CCCNC(=N)N)NC(=O)[C@H](CO)NC(=O)[C@H](Cc1ccc(O)cc1)NC(=O)[C@H](CO)NC(=O)[C@H](CC(=O)O)NC(=O)[C@@H](NC(=O)[C@H](Cc1ccccc1)NC(=O)[C@@H](NC(=O)CNC(=O)[C@H](CC(=O)O)NC(=O)[C@H](CO)NC(=O)[C@@H](N)Cc1c[nH]cn1)[C@@H](C)CC)[C@@H](C)O)C([2H])(C([2H])([2H])[2H])C([2H])([2H])[2H])C(=O)N[C@@H](CC(C)C)C(=O)N[C@@H](CO[C@@H]1O[C@H](CO)[C@@H](O[C@@H]2O[C@H](CO)[C@H](O)[C@H](O)[C@H]2O)[C@H](O)[C@H]1O)C(N)=O [Compound 2LS98Lac]
Striatal DA content [1]: no significant difference
TH-positive neurons in SNc, lesioned vs intact side [2]: neuronal cell death was attenuated
